This is an account of results in patent US20050197338A1, “Substituted pyrazole urea compounds for the treatment of inflammation” (priority 2003, published 2005).

Each structure is given as a SMILES string.

For this assay, the target named is T1, human IKK-2 (rhIKK-2 homodimer) (Homo sapiens, UniProt O14920).
T1 construct: FLAG (DYKDDDDKD) (C); made in house; host or cells: insect cells (baculovirus, pFastBac)
T1 sequence (O14920 1-756): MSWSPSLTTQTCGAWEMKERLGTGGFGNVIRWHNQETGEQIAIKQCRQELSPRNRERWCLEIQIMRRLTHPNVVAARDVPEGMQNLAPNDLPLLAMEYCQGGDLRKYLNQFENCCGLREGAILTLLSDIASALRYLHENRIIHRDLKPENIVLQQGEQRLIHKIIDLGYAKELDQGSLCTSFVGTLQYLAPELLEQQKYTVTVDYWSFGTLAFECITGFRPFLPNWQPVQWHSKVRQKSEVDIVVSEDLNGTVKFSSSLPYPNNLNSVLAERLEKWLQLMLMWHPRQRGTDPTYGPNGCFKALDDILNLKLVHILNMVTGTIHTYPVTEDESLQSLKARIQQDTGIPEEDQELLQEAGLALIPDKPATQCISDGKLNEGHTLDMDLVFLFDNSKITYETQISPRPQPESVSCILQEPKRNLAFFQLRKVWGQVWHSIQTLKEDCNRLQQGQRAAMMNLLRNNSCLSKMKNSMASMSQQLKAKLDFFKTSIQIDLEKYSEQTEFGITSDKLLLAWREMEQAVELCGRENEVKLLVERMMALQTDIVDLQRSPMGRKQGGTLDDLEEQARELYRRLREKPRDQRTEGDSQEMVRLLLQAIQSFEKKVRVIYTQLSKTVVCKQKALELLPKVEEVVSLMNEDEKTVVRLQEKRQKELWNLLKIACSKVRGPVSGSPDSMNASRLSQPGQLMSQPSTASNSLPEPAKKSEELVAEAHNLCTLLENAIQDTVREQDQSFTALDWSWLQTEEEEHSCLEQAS
Description: IKK-2 Resin Enzyme Assay (Human IKK-2 Enzyme Assay). To be noted: human IKK-2, resin enzyme assay; read-out: IC50 (μM) hIKK-2. In kind it is biochemical. The source says: Materials: SAM^2™96 Biotin capture plates were from Promega. Anti-FLAG affinity resin, FLAG-peptide, NP-40 (Nonidet P-40), BSA, ATP, ADP, AMP, LPS (E. coli serotype 0111:B4), and dithiothreitol were obtained from Sigma Chemicals. Antibodies specific for NEMO (IKK-γ) (FL-419), IKK-1 (H-744), IKK-2(H-470) and IκBa(C-21) were purchased from Santa Cruz Biotechnology. Ni-NTA resin was purchased from Qiagen. Peptides were purchased from American Peptide Company. Protease inhibitor cocktail tablets were from Boehringer Mannheim. Sephacryl S-300 column was from Pharmacia LKB Biotechnology. Centriprep-10 concentrators with a molecular weight cutoff of 10 kDa and membranes with molecular weight cut-off of 30 kDa were obtained from Amicon. [γ-^33P] ATP (2500 Ci/mmol) and [γ-^32P] ATP (6000 Ci/mmol) were purchased from Amersham. The other reagents used were of the highest grade commercially available.
Cloning and Expression: cDNAs of human IKK-1 and IKK-2 were amplified by reverse transcriptase-polymerase chain reaction from human placental RNA (Clonetech). hlKK-1 was subcloned into pFastBac HTa (Life Technologies) and expressed as N-terminal His6-tagged fusion protein. The hlKK-2 cDNA was amplified using a reverse oligonucleotide primer which incorporated the peptide sequence for a FLAG-epitope tag at the C-terminus of the IKK-2 coding region (DYKDDDDKD). The hlKK-2:FLAG cDNA was subcloned into the baculovirus vector pFastBac. The rhIKK-2 ([…]) mutant was constructed in the same vector used for wild type rhIKK-2 using a QuikChange™ mutagenesis kit (Stratagene). Viral stocks of each construct were used to infect insect cells grown in 40 L suspension culture. […] Cell lysates were stored at −80° C. until purification of the recombinant proteins was undertaken as described below.
Enzyme Isolation: All purification procedures were carried out at 4° C. unless otherwise noted. Buffers used are: buffer A: 20 mM Tris-HCl, pH 7.6, containing 50 mM NaCl, 20 mM NaF, 20 mM β-Glycerophosphate, 500 μM sodium orthovanadate, 2.5 mM metabisulfite, 5 mM benzamidine, 1 mM EDTA, 0.5 mM EGTA, 10% glycerol, 1 mM DTT, 1× Complete™ protease inhibitors; buffer B: same as buffer A, except 150 mM NaCl, and buffer C: same as buffer A, except 500 mM NaCl.
Isolation of rhIKK-2 homodimer: A 10-liter culture of baculovirus-expressing IKK-2 tagged with FLAG peptide was centrifuged and the cell pellet (MOI=0.1 and 1=72 h) was re-suspended in buffer A. These cells were microfluidized, and centrifuged at 100,000×g for 45 min. Supernatant was passed over a G-25 column equilibrated with Buffer A. Protein peak was collected and incubated with anti-FLAG affinity resin on a rotator overnight in buffer B. The resin was washed in batch with 10-15 bed volumes of buffer C. Washed resin was poured into a column and rhIKK-2 homodimer was eluted using 5 bed volumes of buffer B containing FLAG peptide. 5 mM DTT, 0.1% NP-40 and BSA (concentrated to 0.1% in final amount) was added to the eluted enzyme before concentrating in using an Amicon membrane with a molecular weight cut-off of 30 kDa. Enzyme was aliquoted and stored at −80° C.
IKK-2 Resin Enzyme Assay: IKK-2 kinase activity was measured using a biotinylated IκBα peptide (Gly-Leu-Lys-Lys-Glu-Arg-Leu-Leu-Asp-Asp-Arg-His-Asp-Ser32-Gly-Leu-Asp-Ser36-Met-Lys-Asp-Glu-Glu) (American Peptide Co.). 20 μL of the standard reaction mixture contained 5 μM biotinylated IκBα peptide, 0.1 μCi/reaction [γ-^33P] ATP (Amersham) (about 1×10^5 cpm), 1 μM ATP (Sigma), 1 mM DTT (Sigma), 2 mM MgCl2 (Sigma), 2 mM MnCl2 (Sigma), 10 mM NaF (Sigma), 25 mM Hepes (Sigma) buffer, pH 7.6 and 20 μL enzyme solution and 10 μL inhibitor in a final volume of 50 μL. After incubation at 25° C. for 30 min, 150 μL resin (Dowex anion-exchange resin AG1X8 200-400 mesh) in 900 mM formate, pH 3.0 was added to each well to stop the reaction. Resin was allowed to settle for 1 h and 50 μL of supernatant was removed to a Micolite-2 flat bottom plate (Dynex). […]
For the compound `NC(=O)Nc1cn(-c2ccc(-c3ccc(C(=O)Nc4ccccn4)cc3)cc2)nc1C(N)=O` [Example 33, 4-[(aminocarbonyl)amino]-1-{4′-[(pyridin-2-ylamino)carbonyl]-1,1′-biphenyl-4-yl}-1H-pyrazole-3-carboxamide], the IC50 turned out to be 0.89 µM.
For `NC(=O)Nc1cn(-c2ccc(-c3ccc(CN4CCOCC4)cc3)cc2)nc1C(N)=O` [Example 34, 4-[(aminocarbonyl)amino]-1-[4′-(morpholin-4-ylmethyl)-1,1′-biphenyl-4-yl]-1H-pyrazole-3-carboxamide] the value was 4.21 µM; for `NC(=O)Nc1cn(-c2ccc(-c3ccc(C(=O)NCc4ccccc4)cc3)cc2)nc1C(N)=O` [Example 35, 4-[(aminocarbonyl)amino]-1-{4′-[(benzylamino)carbonyl]-1,1′-biphenyl-4-yl}-1H-pyrazole-3-carboxamide], 1.33 µM.
With `NC(=O)Nc1cn(-c2ccc(-c3ccc(O)cc3)cc2)nc1C(N)=O` [Example 36, 4-[(aminocarbonyl)amino]-1-(4′-hydroxy-1,1′-biphenyl-4-yl)-1H-pyrazole-3-carboxamide] the figure was 1.63 µM; with `N#CCc1ccc(-c2ccc(-n3cc(NC(N)=O)c(C(N)=O)n3)cc2)cc1` [Example 37, 4-[(aminocarbonyl)amino]-1-[4′-(cyanomethyl)-1,1′-biphenyl-4-yl]-1H-pyrazole-3-carboxamide], 0.79 µM.
For `NC(=O)Nc1cn(-c2ccc(-c3ccc(CO)cc3)cc2)nc1C(N)=O` [Example 38, 4-[(aminocarbonyl)amino]-1-[4′-(hydroxymethyl)-1,1′-biphenyl-4-yl]-1H-pyrazole-3-carboxamide] the value was 0.83 µM.
For the compound `NC(=O)Nc1cn(-c2ccc(-c3cccc(CO)c3)cc2)nc1C(N)=O` [Example 39, 4-[(aminocarbonyl)amino]-1-[3′-(hydroxymethyl)-1,1′-biphenyl-4-yl]-1H-pyrazole-3-carboxamide], the IC50 turned out to be 1.34 µM.
With `NC(=O)Nc1cn(-c2ccc(-c3ccncc3)cc2)nc1C(N)=O` [Example 40, 4-[(aminocarbonyl)amino]-1-(4-pyridin-4-ylphenyl)-1H-pyrazole-3-carboxamide], the 50% inhibitory concentration (IC50) came out at 0.351 µM.
With `NC(=O)Nc1cn(-c2cccc(-c3ccc(F)cc3)c2)nc1C(N)=O` [Example 42, 4-[(aminocarbonyl)amino]-1-(4′-fluoro-1,1′-biphenyl-3-yl)-1H-pyrazole-3-carboxamide] the figure was 9.22 µM; with `NC(=O)Nc1cn(-c2cccc(-c3ccsc3)c2)nc1C(N)=O` [Example 43, 4-[(aminocarbonyl)amino]-1-(3-thien-3-ylphenyl)-1H-pyrazole-3-carboxamide], 8.54 µM.
With `N#CCc1ccc(-c2cccc(-n3cc(NC(N)=O)c(C(N)=O)n3)c2)cc1` [Example 44, 4-[(aminocarbonyl)amino]-1-[4′-(cyanomethyl)-1,1′-biphenyl-3-yl]-1H-pyrazole-3-carboxamide] the figure was 2.08 µM; with `NC(=O)Nc1cn(-c2cccc(-c3ccncc3)c2)nc1C(N)=O` [Example 45, 4-[(aminocarbonyl)amino]-1-(3-pyridin-4-ylphenyl)-1H-pyrazole-3-carboxamide], 0.31 µM; with `NC(=O)Nc1cn(-c2cccc(-c3ccc(O)cc3)c2)nc1C(N)=O` [Example 47, 4-[(aminocarbonyl)amino]-1-(4′-hydroxy-1,1 ′-biphenyl-3-yl)-1H-pyrazole-3-carboxamide], 0.66 µM.
With `NC(=O)Nc1cn(-c2cccc(-c3ccc(CO)cc3)c2)nc1C(N)=O` [Example 48, 4-[(aminocarbonyl)amino]-1-[4′-(hydroxymethyl)-1,1′-biphenyl-3-yl]-1H-pyrazole-3-carboxamide] the figure was 1.04 µM; with `NC(=O)Nc1cn(-c2cccc(-c3cccc(CO)c3)c2)nc1C(N)=O` [Example 49, 4-[(aminocarbonyl)amino]-1-[3′-(hydroxymethyl)-1,1′-biphenyl-3-yl]-1H-pyrazole-3-carboxamide], 2.48 µM; with `NC(=O)Nc1cn(-c2cccc(-c3cccc(N)c3)c2)nc1C(N)=O` [Example 50, 1-(3′-amino-1,1′-biphenyl-3-yl)-4-[(aminocarbonyl)amino]-1H-pyrazole-3-carboxamide], 2.08 µM.
In the case of `NCc1ccc(-c2cccc(-n3cc(NC(N)=O)c(C(N)=O)n3)c2)cc1` [Example 52, 4-[(aminocarbonyl)amino]-1-[4′-(aminomethyl)-1,1′-biphenyl-3-yl]-1H-pyrazole-3-carboxamide], the concentration for half-maximal inhibition (IC50) is 4.86 µM.
With `CC(=O)c1ccc(-c2cccc(-n3cc(NC(N)=O)c(C(N)=O)n3)c2)cc1` [Example 53, 1-(4′-acetyl-1,1′-biphenyl-3-yl)-4-[(aminocarbonyl)amino]-1H-pyrazole-3-carboxamide] the figure was 4.07 µM; with `CC(=O)Nc1ccc(-c2cccc(-n3cc(NC(N)=O)c(C(N)=O)n3)c2)cc1` [Example 55, 1-[4′-(acetylamino)-1,1′-biphenyl-3-yl]-4-[(aminocarbonyl)amino]-1H-pyrazole-3-carboxamide], 1.04 µM.
With `COc1ccc(-c2cccc(-n3cc(NC(N)=O)c(C(N)=O)n3)c2)cc1OC` [Example 56, 4-[(aminocarbonyl)amino]-1-(3,4′-dimethoxy-1,1′-biphenyl-3-yl)-1H-pyrazole-3-carboxamide] the figure was 2.16 µM.
In the case of `NC(=O)Nc1cn(-c2cccc(-c3cn[nH]c3)c2)nc1C(N)=O` [Example 57, 4-[(aminocarbonyl)amino]-1-[3-(1H-pyrazol-4-yl)phenyl]-1H-pyrazole-3-carboxamide], the 50% inhibitory concentration (IC50) was found to be 0.29 µM.
`NC(=O)Nc1cn(-c2cccc(-c3ccc(C(=O)O)cc3)c2)nc1C(N)=O` [Example 58, 3′-{3-(aminocarbonyl)-4-[(aminocarbonyl)amino]-1H-pyrazol-1-yl}-1,1′-biphenyl-4-carboxylic acid]: the 50% inhibitory concentration (IC50) was 2.81 µM.
